Data taken from patent US9273364B2 (Kyoto University, priority 2010, dated 2016).
Where a name gives a salt, the structure may show the parent alone. Read-outs that look alike come from different tables or passages of the source.

Tested on: alternative splicing of a specific gene (GFP/RFP reporter)
Test: Compound screen with GFP/RFP alternative splicing reporter
Type: cell-based
From the text: Strategy of a method for testing whether or not a compound to be tested affects an alternative splicing of a specific gene in a mammalian multicelluar organism is shown in FIG. 14.
The reporter proteins used for the method are GFP and FRP.

[1] = cell count after compound at final conc., Ctrl number of cells 4303-5627
[2] = reporter ratio relative to control = 1, final conc. per compound (μM, 50 ng/mL)

Compound	Number of cells (50 ng/mL)	Number of cells [1]	Number of cells	other results
CCCCC[C@H](O)/C=C/[C@H]1[C@H](O)CC(=O)[C@@H]1CCCCCCC(=O)O [Alprostadil]	3505	–	–	–
C[C@H]1[C@H](OC(=O)CCC(=O)O)O[C@@H]2O[C@@]3(C)CC[C@H]4[C@H](C)CC[C@@H]1[C@@]24OO3 [Artesunate]	246	–	–	–
COc1ccc(CCN2CCC(Nc3nc4ccccc4n3Cc3ccc(F)cc3)CC2)cc1 [Astemizole]	38	–	–	–
CC(=O)OC[C@H]1O[C@@H]([S-])[C@H](OC(C)=O)[C@@H](OC(C)=O)[C@@H]1OC(C)=O.CCP(CC)CC.[Au+] [Auranofin]	–	1	–	GFP/RFP (Ctrl = 1): 4.915
Cc1cc2c(OCC(CNC(C)(C)C)OC(=O)c3ccccc3)cccc2[nH]1.O=C(O)CC(=O)O (stereo not drawn) [Bopindolol malonate]	–	–	3625	GFP/RFP (Ctrl = 1) [2]: 1.265
CCCC(=O)OCC[N+](C)(C)C.[Cl-] [Butyrylcholine Cl]	–	–	–	count per well with compound (column 9, head not shown; probably cell number; c10 = plate reference): 4016; reporter fluorescence ratio relative to control (last column of Table 4, head not shown; table sorted by this value): 1.016
CC[C@@]1(O)C(=O)OCc2c1cc1n(c2=O)Cc2cc3ccccc3nc2-1 [Camptothecin]	–	385	–	–
COc1cc(CNC(=O)CCCC/C=C/C(C)C)ccc1O [Capsaicin]	–	1918	–	–
C[C@@](Cc1ccc(O)c(O)c1)(NN)C(=O)O [Carbidopa]	–	–	3470	–
N.N.O=C([O-])C1(C(=O)[O-])CCC1.[Pt+2] [Carboplatin]	–	1373	–	GFP/RFP (Ctrl = 1): 1.875
CC1(C)C[C@@H]1C(=O)N/C(=C\CCCCSC[C@H](N)C(=O)O)C(=O)O [Cilastatin]	–	–	–	cell count per well (c9; column head not printed in these continuation tables, meaning inferred): 2885
O=P1(N(CCCl)CCCl)NCCCO1 (stereo not drawn) [Cyclophosphamide monohydrate]	–	–	–	cell count per well (c9; column head not printed in these continuation tables, meaning inferred): 3065
COc1cccc2c1C(=O)c1c(O)c3c(c(O)c1C2=O)C[C@@](O)(C(C)=O)C[C@@H]3O[C@H]1C[C@H](N)[C@H](O)[C@H](C)O1 [Daunorubicin HCl]	3	–	–	–
CC(CCc1ccc(O)cc1)NCCc1ccc(O)c(O)c1 (stereo not drawn) [Dobutamine HCl]	–	2991	–	–
CC(=O)O[C@@]12CO[C@@H]1C[C@H](O)[C@@]1(C)C(=O)[C@H](O)C3=C(C)[C@@H](OC(=O)[C@H](O)[C@@H](NC(=O)OC(C)(C)C)c4ccccc4)C[C@@](O)([C@@H](OC(=O)c4ccccc4)[C@H]21)C3(C)C [Docetaxil]	–	–	1194	GFP/RFP (Ctrl = 1) [2]: 1.862
COc1cccc2c1C(=O)c1c(O)c3c(c(O)c1C2=O)C[C@@](O)(C(=O)CO)C[C@@H]3O[C@H]1C[C@H](N)[C@H](O)[C@H](C)O1 [Doxorubicin HCl]	18	–	–	–
CNC[C@H](O)c1ccc(O)c(O)c1.O=C(O)C(O)C(O)C(=O)O [Epinephrine-(+)-tartrate l (−)]	–	–	4057	GFP/RFP (Ctrl = 1) [2]: 1.528
COc1cc([C@@H]2c3cc4c(cc3[C@@H](O[C@@H]3O[C@@H]5CO[C@@H](C)O[C@H]5[C@H](O)[C@H]3O)[C@H]3COC(=O)[C@H]23)OCO4)cc(OC)c1O [Etoposide]	055	–	–	–
CCOC(=O)C1=C(C)NC(C)=C(C(=O)OC)C1c1cccc(Cl)c1Cl (stereo not drawn) [Felodipine]	116	–	–	–
COc1ccc2c(c1)[nH]c1c(C)nccc12 [Harmine]	–	537	–	–
CO[C@@]12[C@H](COC(N)=O)C3=C(C(=O)C(C)=C(N)C3=O)N1C[C@@H]1N[C@@H]12 [Mitomycin c]	–	319	–	GFP/RFP (Ctrl = 1): 3.767
Cl.Cl.O=C1c2c(O)ccc(O)c2C(=O)c2c(NCCNCCO)ccc(NCCNCCO)c21 [Mitoxantrone 2HCl]	–	–	31	GFP/RFP (Ctrl = 1) [2]: 2.651
COc1c(C)c2c(c(O)c1C/C=C(\C)CCC(=O)O)C(=O)OC2 [Mycophenolic acid]	1367	–	–	–

Compound	Number of cells (50 ng/mL)	Number of cells [1]	Number of cells	other results
COC(=O)C1=C(C)NC(C)=C(C(=O)OC)C1c1ccccc1[N+](=O)[O-] [Nifedipine]	156	–	–	–
NC[C@H](O)c1ccc(O)c(O)c1.O=C(O)C(O)C(O)C(=O)O [Norepinephrine-(+)-tartrate l (−)]	–	–	4210	GFP/RFP (Ctrl = 1) [2]: 1.594
C[C@@H]1[C@H](O)[C@@H](C)/C=C/C=C/CC/C=C/C=C/C=C/C=C/C(O[C@H]2O[C@H](C)[C@@H](O)[C@H](N)[C@@H]2O)CC2O[C@](O)(CC(O)C(O)CCC(O)CC(O)CC(O)CC(=O)O[C@H]1C)CC(O)C2C(=O)O (stereo partly drawn) [Nystatin]	–	3293	–	GFP/RFP (Ctrl = 1): 1.253
O=C1[O][Pt]2([NH][C@@H]3CCCC[C@H]3[NH]2)[O]C1=O [Oxaliplatin]	–	825	–	GFP/RFP (Ctrl = 1): 2.271
CC1(C)S[C@@H]2[C@H](NC(=O)COc3ccccc3)C(=O)N2[C@H]1C(=O)[O-].[K+] [Pencillin v potassium]	–	–	–	reporter fluorescence ratio, GFP/RFP (c11; column head not printed in these continuation tables, table sorted descending by it): 1.134
N=C(N)c1ccc(OCCCCCOc2ccc(C(=N)N)cc2)cc1 [Pentamidine]	2694	–	–	–
COc1cc2nc(N3CCN(C(=O)c4ccco4)CC3)nc(N)c2cc1OC [Prazosin HCl]	–	–	2109	–
CCC(NC(C)C)C(O)c1ccc(O)c2[nH]c(=O)ccc12 (stereo not drawn) [Procaterol hcl]	–	–	4151	–
CC(C)NCC(O)COc1cccc2ccccc12 (stereo not drawn) [Propranolol]	2641	–	–	–
CCN(CC)CCCC(C)Nc1c2ccc(Cl)cc2nc2ccc(OC)cc12.Cl.Cl.O.O (stereo not drawn) [Quinacrine 2HCl dihydrate]	–	–	5	GFP/RFP (Ctrl = 1) [2]: 3.153
CO[C@H]1C[C@@H]2CC[C@@H](C)[C@@](O)(O2)C(=O)C(=O)N2CCCC[C@H]2C(=O)O[C@H]([C@H](C)C[C@@H]2CC[C@@H](O)[C@H](OC)C2)CC(=O)[C@H](C)/C=C(\C)[C@@H](O)[C@@H](OC)C(=O)[C@H](C)C[C@H](C)/C=C/C=C/C=C/1C [Rapamycin]	–	2046	–	–
CC1=C(/C=C/C(C)=C/C=C/C(C)=C/C(=O)O)C(C)(C)CCC1 [Retinoic acid]	–	–	2697	–
COc1ccc(C2CNC(=O)C2)cc1OC1CCCC1 (stereo not drawn) [Rolipram]	–	2878	–	–
Cl.O=C(O)c1cn(-c2ccc(F)cc2)c2cc(N3CCNCC3)c(F)cc2c1=O [Satafloxacin HCl]	–	–	3105	GFP/RFP (Ctrl = 1) [2]: 1.341
C[C@@H]1CN(c2c(F)c(N)c3c(=O)c(C(=O)O)cn(C4CC4)c3c2F)C[C@H](C)N1 [Sparfloxacin]	3029	–	–	–
Cc1coc2c1C(=O)C(=O)c1c-2ccc2c1CCCC2(C)C [Tanshinone iia]	2210	–	–	–
CC(=O)O[C@H]1C(=O)[C@@]2(C)[C@H]([C@H](OC(=O)c3ccccc3)[C@]3(O)C[C@H](OC(=O)[C@H](O)[C@@H](NC(=O)c4ccccc4)c4ccccc4)C(C)=C1C3(C)C)[C@]1(OC(C)=O)CO[C@@H]1C[C@@H]2O [Taxol]	719	–	–	–
O=C1CCC(N2C(=O)c3ccccc3C2=O)C(=O)N1 (stereo not drawn) [Thaldomide]	–	–	2622	GFP/RFP (Ctrl = 1) [2]: 1.271
COc1cc2c(cc1OC)-c1c/c(=N\c3c(C)cc(C)cc3C)n(C)c(=O)n1CC2 [Trequinsin]	–	–	3009	–
COc1cc(-c2ccc(=O)[nH]n2)ccc1OC(F)F [Zardaverine]	–	2744	–	–
Apomorphine r (−)	–	3372	–	GFP/RFP (Ctrl = 1): 1.357
Bleomycin sulfate	–	2702	–	GFP/RFP (Ctrl = 1): 1.477
Salbutamol sulfate	–	–	4053	GFP/RFP (Ctrl = 1) [2]: 1.295
